{"source": "patent US20190029257A1", "about": "“APPLICATION FOR HERBICIDE-TOLERANT PROTEIN” (BEIJING DABEINONG TECHNOLOGY GROUP CO., LTD., priority 2016, published 2019)", "format_in_all_cases": "in vivo", "key": {"[1]": {"system": "all the transformed Arabidopsis thaliana T1 plants (ALT-1, ALT-2 and ALT-3)", "test": "Herbicide tolerance of Arabidopsis thaliana T1 plants", "details": "34 g ai/ha; summary of Table 1 and FIG. 4", "source_text": "At cytoplasmic ALT-1-01 T1 plants, At chloroplastic ALT-1-01 T1 plants, At cytoplasmic ALT-2-01 T1 plants, At chloroplastic ALT-2-01 T1 plants, At cytoplasmic ALT-3-01 T1 plants, At chloroplastic ALT-3-01 T1 plants and wild-type Arabidopsis thaliana plants were sprayed with halosulfuron-methyl (34 g ai/ha, 1-fold field concentration) and a blank solvent (water), respectively. Plants were counted for the resistance situations 14 days after spraying: those having a consistent growth status with the blank solvent (water) group after 14 days were classified as highly resistant plants, those having a bolting height less than ½ of that of the blank solvent (water) group after 14 days were classified as moderately resistant plants, those still not capable of bolting after 14 days were classified as poorly resistant plants, and those dead after 14 days were classified as non-resistant plants. Since each Arabidopsis thaliana T1 plant was an independent transformation event, a significant difference in individual T1 responses could be expected at a given dose.\nAt cytoplasmic ALT-1-01 T1 plants, At chloroplastic ALT-1-01 T1 plants, At cytoplasmic ALT-2-01 T1 plants, At chloroplastic ALT-2-01 T1 plants, At cytoplasmic ALT-3-01 T1 plants, At chloroplastic ALT-3-01 T1 plants and wild-type Arabidopsis thaliana plants in Example 4 were sprayed with iodosulfuron-methyl (10 g ai/ha, 1-fold field concentration), mesosulfuron (14 g ai/ha, 1-fold field concentration) and oxasulfuron (60 g ai/ha, 1-fold field concentration), respectively, in addition to halosulfuron-methyl (34 g ai/ha, 1-fold field concentration) and the blank solvent (water). Plants were counted for the resistance situation 14 days after spraying: those having a consistent growth status with the blank solvent (water) group after 14 days were classified as highly resistant plants, those having a bolting height less than ½ of that of the blank solvent (water) group after 14 days were classified as moderately resistant plants, those still not capable of bolting after 14 days were classified as poorly resistant plants, and those dead after 14 days were classified as non-resistant plants. Since each Arabidopsis thaliana T1 plant was an independent transformation event, a significant difference in individual T1 responses could be expected at a given dose."}, "[2]": {"system": "Zm chloroplastic ALT-2-02 maize plants", "test": "Halosulfuron-methyl tolerance of maize plants (damage degree)", "details": "36 g ai/ha (4x Hal.); for Average damage % 3 DAT: 3 days after spraying; for Average damage % 7 DAT: 7 days after spraying; for Average damage % 14 DAT: 14 days after spraying; for Average damage % 21 DAT: 21 days after spraying", "source_text": "(§1) The herbicide tolerance effects of Zm cytoplasmic ALT-1-02 maize plants, Zm chloroplastic ALT-1-02 maize plants, Zm cytoplasmic ALT-2-02 maize plants, Zm chloroplastic ALT-2-02 maize plants, Zm cytoplasmic ALT-3-02 maize plants, Zm chloroplastic ALT-3-02 maize plants and wild-type maize plants on halosulfuron-methyl were detected (at V3-V4 stage), respectively.\n(§2) Zm cytoplasmic ALT-1-02 maize plants, Zm chloroplastic ALT-1-02 maize plants, Zm cytoplasmic ALT-2-02 maize plants, Zm chloroplastic ALT-2-02 maize plants, Zm cytoplasmic ALT-3-02 maize plants, Zm chloroplastic ALT-3-02 maize plants and wild-type maize plants were respectively taken and sprayed with halosulfuron-methyl (36 g ai/ha, 4-fold field concentration) and a blank solvent (water). The damage degree caused by the herbicide was measured for each plant according to the plant growth status 3 days after spraying (3 DAT), 7 days after spraying (7 DAT), 14 days after spraying (14 DAT) and 21 days after spraying (21 DAT), respectively: considering a growth status equivalent to that of the untreated plants as having a damage degree of 0%; considering conditions of leaves being partially chlorotic and yellow but substantially not affecting the plant normal growth as having a damage degree of 50%; and considering the whole plant being purple and dying as having a damage degree of 100%. There were 2 strains in Zm cytoplasmic ALT-1-02 maize plants in total (S13 and S14), 2 strains in Zm chloroplastic ALT-1-02 maize plants in total (S15 and S16), 2 strains in Zm cytoplasmic ALT-2-02 maize plants in total (S17 and S18), 2 strains in Zm chloroplastic ALT-2-02 maize plants in total (S19 and S20), 2 strains in Zm cytoplasmic ALT-3-02 maize plants in total (S21 and S22), 2 strains in Zm chloroplastic ALT-3-02 maize plants in total (S23 and S24), and 1 strain in wild- type maize plants (CK2) in total; and 10-15 plants were selected from each strain and tested."}, "[3]": {"system": "Zm cytoplasmic ALT-2-02 maize plants", "test": "Halosulfuron-methyl tolerance of maize plants (damage degree)", "details": "36 g ai/ha (4x Hal.); for Average damage % 3 DAT: 3 days after spraying; for Average damage % 7 DAT: 7 days after spraying; for Average damage % 14 DAT: 14 days after spraying; for Average damage % 21 DAT: 21 days after spraying", "source_text": "as §1, §2"}, "[4]": {"system": "Zm cytoplasmic ALT-3-02 maize plants", "test": "Halosulfuron-methyl tolerance of maize plants (damage degree)", "details": "36 g ai/ha (4x Hal.); for Average damage % 3 DAT: 3 days after spraying; for Average damage % 7 DAT: 7 days after spraying; for Average damage % 14 DAT: 14 days after spraying; for Average damage % 21 DAT: 21 days after spraying", "source_text": "as §1, §2"}, "[5]": {"system": "Zm chloroplastic ALT-1-02 maize plants", "test": "Halosulfuron-methyl tolerance of maize plants (damage degree)", "details": "36 g ai/ha (4x Hal.); for Average damage % 3 DAT: 3 days after spraying; for Average damage % 7 DAT: 7 days after spraying; for Average damage % 14 DAT: 14 days after spraying; for Average damage % 21 DAT: 21 days after spraying", "source_text": "as §1, §2"}}, "data": [{"smiles": "COC(=O)c1c(Cl)nn(C)c1S(=O)(=O)NC(=O)Nc1nc(OC)cc(OC)n1", "note": "[halosulfuron-methyl, 3-chlorine-5-(4,6-dimethoxypyrimidine-2-aminocarbonylaminosulphonyl)-1-methylpyrazole-4-carboxylic acid methyl ester]", "values": [{"measurement": "tolerance of the plants to the herbicide", "setting": "[1]", "value": "conferred halosulfuron-methyl herbicide tolerance to individual Arabidopsis thaliana plants"}, {"measurement": "Average damage % 3 DAT", "setting": "[2]; strain S19", "value": 0, "unit": "%"}, {"measurement": "Average damage % 7 DAT", "setting": "[2]; strain S19", "value": 0, "unit": "%"}, {"measurement": "Average damage % 14 DAT", "setting": "[2]; strain S19", "value": 0, "unit": "%"}, {"measurement": "Average damage % 21 DAT", "setting": "[2]; strain S19", "value": 0, "unit": "%"}, {"measurement": "Average damage % 3 DAT", "setting": "[2]; strain S20", "value": 0, "unit": "%"}, {"measurement": "Average damage % 7 DAT", "setting": "[2]; strain S20", "value": 0, "unit": "%"}, {"measurement": "Average damage % 14 DAT", "setting": "[2]; strain S20", "value": 0, "unit": "%"}, {"measurement": "Average damage % 21 DAT", "setting": "[2]; strain S20", "value": 0, "unit": "%"}, {"measurement": "Average damage % 3 DAT", "setting": "[3]; strain S17", "value": 0, "unit": "%"}, {"measurement": "Average damage % 7 DAT", "setting": "[3]; strain S17", "value": 3, "unit": "%"}, {"measurement": "Average damage % 14 DAT", "setting": "[3]; strain S17", "value": 0, "unit": "%"}, {"measurement": "Average damage % 21 DAT", "setting": "[3]; strain S17", "value": 0, "unit": "%"}, {"measurement": "Average damage % 3 DAT", "setting": "[3]; strain S18", "value": 0, "unit": "%"}, {"measurement": "Average damage % 7 DAT", "setting": "[3]; strain S18", "value": 2, "unit": "%"}, {"measurement": "Average damage % 14 DAT", "setting": "[3]; strain S18", "value": 0, "unit": "%"}, {"measurement": "Average damage % 21 DAT", "setting": "[3]; strain S18", "value": 0, "unit": "%"}, {"measurement": "Average damage % 3 DAT", "setting": "[4]; strain S21", "value": 0, "unit": "%"}, {"measurement": "Average damage % 7 DAT", "setting": "[4]; strain S21", "value": 4, "unit": "%"}, {"measurement": "Average damage % 14 DAT", "setting": "[4]; strain S21", "value": 0, "unit": "%"}, {"measurement": "Average damage % 21 DAT", "setting": "[4]; strain S21", "value": 0, "unit": "%"}, {"measurement": "Average damage % 3 DAT", "setting": "[4]; strain S22", "value": 0, "unit": "%"}, {"measurement": "Average damage % 7 DAT", "setting": "[4]; strain S22", "value": 5, "unit": "%"}, {"measurement": "Average damage % 14 DAT", "setting": "[4]; strain S22", "value": 0, "unit": "%"}, {"measurement": "Average damage % 21 DAT", "setting": "[4]; strain S22", "value": 0, "unit": "%"}, {"measurement": "Average damage % 3 DAT", "setting": "[5]; strain S15", "value": 0, "unit": "%"}, {"measurement": "Average damage % 7 DAT", "setting": "[5]; strain S15", "value": 0, "unit": "%"}, {"measurement": "Average damage % 14 DAT", "setting": "[5]; strain S15", "value": 0, "unit": "%"}, {"measurement": "Average damage % 21 DAT", "setting": "[5]; strain S15", "value": 0, "unit": "%"}, {"measurement": "Average damage % 3 DAT", "setting": "[5]; strain S16", "value": 0, "unit": "%"}, {"measurement": "Average damage % 7 DAT", "setting": "[5]; strain S16", "value": 0, "unit": "%"}, {"measurement": "Average damage % 14 DAT", "setting": "[5]; strain S16", "value": 0, "unit": "%"}, {"measurement": "Average damage % 21 DAT", "setting": "[5]; strain S16", "value": 0, "unit": "%"}]}]}
